Measured values as given in US20260364168A1, “USE OF PROTEIN KINASE C (PKC) ACTIVATING COMPOUNDS AS AN ADJUVANT” (priority 2022, published 2026).
Like-named read-outs stand apart in the source and are kept apart here.

Assays:
[1] = tested on: NFκB; test: NFκB luciferase reporter gene assay in HeLa-NFκB luciferase reporter cell line; format: cell-based; details: 16 h, 37 °C, luciferase/CTG normalized; read-out: NFκB-luc HeLa cells EC50
Experimental: The PKC activator compounds were evaluated for their effect on NFκB expression using a luciferase reporter gene expression system. (The indicators “K-101,” “K101” and “K-101A” may be used interchangeably in this disclosure and appended figures).
A HeLa-NFκB luciferase reporter cell line (Wuxi Biology) was used to assess a group of PKC activator compounds for their ability to activate NFκB-driven transcription. Two sets of cells at 20000 cells/well were plated, grown overnight, and then treated for 16 h at 37 °C with DMSO, 6 doses of each compound, or TNF-α (final concentration of 10 ng/mL, positive control) in triplicates. One set of cells was assayed for luciferase activity (Promega, Cat #E1500) and the other set was assayed to determine the number of viable cells (for cell number normalization) using CellTiter-Glo (CTG) kit (Promega, Cat #G7570) according to manufacture's procedures. Normalized data (luciferase value/CTG value) were analyzed using GraphPad Prism5 to calculate EC50 for each compound (see Table 3).

[2] = tested on: mouse splenocytes; test: IFN-γ ELISpot in mouse splenocytes; format: cell-based, C57BL/6J mice
Experimental: Production of IFN-γ in response to infection or other stimuli is a hallmark of innate and adaptive immunity. To measure the effect of direct immune stimulation, freshly isolated splenocytes from three C57BL/6J mice were seeded in ELISpot plates pre-coated with anti-IFN-γ antibody (Mabtech, #3321-4AST-2) at 1 million splenocytes per well in OptiVitro® T Cell Serum-free Medium (Excellbio, Cat #TE000-N021). […] Detection of the IFN-γ spot-forming cells was performed according to the manufacture's protocol. Briefly, cells were removed from the ELISpot plates. After washing with PBS, the ELISpot plates were incubated with […] of the R4-6A2-biotin detection antibody for 2 hours at room temperature (RT) and then with streptavidin-ALP (1:1000) at RT for 1 hour. BCIP/NBT chromogen substrate solution was added to the plates until distinct spots emerged. The spots (IFN-γ-secreting cells) were counted using an AID ELISPOT reader.

[3] = tested on: human PBMC cells; test: cytokine/chemokine gene expression (TaqMan) in human PBMC; details: 4 h
Experimental: Materials and methods: 100 million frozen human PBMC cells were purchased from Allcells (100 million/vial). The cells were thawed and recovered for one day before 1.5-1.8 million cells in 900 μl RPMI1640 with 10% heat-inactivated FBS were seeded in each well of 24-well plates. Various compounds in DMSO stock (500×) were diluted 50-fold with the same media to make 10× compound stock for most compounds. 1 μL of 5 mg/mL PMA was diluted to 99 μL of the media to make 50 μg/mL PMA. For PMA with ionomycin treatment condition, 1.5 μL of 50 μg/mL PMA and 3 μL of 500 μg/mL ionomycin were added to 145.5 μL of the media to make 10× compound stock. Sources of the compounds are as follows: PMA from Abcam (Abcam #ab120297); Ionomycin from Sigma (Sigma #I0634); Resiquimod from Sellect Chem. (Selleckchem #S8133); and LPS from Sigma (Sigma #L6143).
Each treatment condition was performed in duplicates. After treatment, mRNA was extracted from cells and samples from duplicates were combined for TaqMan gene expression assays (ThermoFisher) in triplicates. Expression of 19 genes (IL-1β, IL-2, IL-4, IL-6, IL-8, IL-10, IL-13, IL-18, IL-12p70/IL-12A, IL-12p40/IL-12B, IFN-α, IFN-γ, GM-CSF/CSF2, CCL2/MCP-1, MIP1a/CCL3, TNF-α, MX1, OAS1, ISG15) along with two housekeeping gene controls, 18S and GAPDH, was determined. Target gene expression in each sample was determined by relative quantification (RQ) using the comparative Ct (ΔΔCT) method. This method measures the Ct difference (ΔCT) between target gene and the housekeeping genes (18S & GAPDH), then compares the ΔCT values of treated samples to DMSO-treated control samples. The mean ΔCT value of the DMSO-treated control from two independent DMSO-treated control samples was used. The relative expression level of target gene was calculated by using the equation:
relative expression=2^−ΔΔCT

[4] = tested on: NFκB; details: in vitro, TLR5-dependent and -independent; Oh et al. 2014; cited from earlier work
[5] = tested on: antigen-specific antibody as well as T cell responses; details: in vivo; Oh et al. 2014; cited from earlier work
[6] = tested on: DC cells; details: Yan et al. 2010; cited from earlier work
[7] = tested on: antigen-specific T cell responses; details: Yan et al. 2010; cited from earlier work
[8] = 0.03 μM, vs DMSO, 240 min, 0.03 µM
[9] = 0.10 μM, vs DMSO, 240 min, 0.1 µM

For `CC1=C[C@H]2[C@@]3(O)[C@H](C)C[C@]4(OC(=O)C(N)CCCCCCc5ccccc5)[C@H]([C@@H]3C=C(CO)C[C@]2(O)C1=O)C4(C)C` (some centres unmarked), the EC50 [1] was 10 to 30 nM, the “IFN-γ secreting cells/million splenocytes” value ([2]; 60 nM, 24 h, Mouse 1) was 245 cells/million splenocytes and the “IFN-γ secreting cells/million splenocytes” value ([2]; 60 nM, 24 h, Mouse 2) was 137 cells/million splenocytes. For the same compound, the “IFN-γ secreting cells/million splenocytes” value ([2]; 60 nM, 24 h, Mouse 3) was 110 cells/million splenocytes, the “IFN-γ secreting cells/million splenocytes” value ([2]; 200 nM, 24 h, Mouse 1) was “saturated” and the “IFN-γ secreting cells/million splenocytes” value ([2]; 200 nM, 24 h, Mouse 2) was “saturated”. For the same compound, the “IFN-γ secreting cells/million splenocytes” value ([2]; 200 nM, 24 h, Mouse 3) was “saturated”, the “dose-response of IFN-γ production” value ([2]; 60 and 200 nM, in words) was “a trend of dose-response” and the minimal effective concentration ([2]; Splenocyte, mouse splenocytes, 24 h, read-out: concentration (as low as) at which IFN-γ production was stimulated) was 0.06 µM. The “ISG15 gene relative expression” value ([3]; 0.03 μM, vs DMSO) was 0.97, the “MX1 gene relative expression” value ([3]; 0.03 μM, vs DMSO) was 0.65 and the “CCL2 gene relative expression” value [3, 8] was 4.55. For the same compound, the “GM-CSF gene relative expression” value [3, 8] was 1.89, the “IFN-α gene relative expression” value [3, 8] was 1.66 and the “IFNγ gene relative expression” value [3, 8] was 1.62. The “IL-1β gene relative expression” value [3, 8] was 0.54, the “IL-2 gene relative expression” value [3, 8] was 1.71 and the “IL-6 gene relative expression” value [3, 8] was 0.74. For the same compound, the “IL-8 gene relative expression” value [3, 8] was 0.80, the “IL-10 gene relative expression” value [3, 8] was 1.27 and the “IL-12p40 gene relative expression” value [3, 8] was 0.74. The “IL-12p70 gene relative expression” value [3, 8] was 1.02, the “IL-13 gene relative expression” value [3, 8] was 0.40 and the “IL-18 gene relative expression” value [3, 8] was 0.47. The “MIP1a (CCL3) gene relative expression” value [3, 8] was 1.86, the “OAS1 gene relative expression” value [3, 8] was 0.64 and the “TNF-α gene relative expression” value [3, 8] was 1.38. The “CCL2 gene relative expression” value [3, 9] was 3.12, the “GM-CSF gene relative expression” value [3, 9] was 7.74 and the “IFN-α gene relative expression” value [3, 9] was 0.73. For the same compound, the “IFNγ gene relative expression” value [3, 9] was 3.47, the “IL-1β gene relative expression” value [3, 9] was 1.58 and the “IL-2 gene relative expression” value [3, 9] was 7.65. For the same compound, the “IL-4 gene relative expression” value [3, 9] was 1.61, the “IL-8 gene relative expression” value [3, 9] was 0.53 and the “IL-10 gene relative expression” value [3, 9] was 0.48. The “IL-12p70 gene relative expression” value [3, 9] was 0.93, the “IL-13 gene relative expression” value [3, 9] was 47.45 and the “IL-18 gene relative expression” value [3, 9] was 0.09. For the same compound, the “ISG15 gene relative expression” value [3, 9] was 1.16, the “MIP1a (CCL3) gene relative expression” value [3, 9] was 2.39 and the “MX1 gene relative expression” value [3, 9] was 0.72. The “OAS1 gene relative expression” value [3, 9] was 0.55, the “TNF-α gene relative expression” value [3, 9] was 4.04 and the fold induction at 0.3 µM ([3]; Homo sapiens, PBMC, read-out: CCL2 gene relative expression, 0.3 μM, 4 h, vs DMSO) was 2.09. For the same compound, the fold induction at 0.3 µM ([3]; Homo sapiens, PBMC, read-out: GM-CSF gene relative expression, 0.3 μM, 4 h, vs DMSO) was 10.5, the fold induction at 0.3 µM ([3]; Homo sapiens, PBMC, read-out: IFN-α gene relative expression, 0.3 μM, 4 h, vs DMSO) was 0.95 and the fold induction at 0.3 µM ([3]; Homo sapiens, PBMC, read-out: IFNγ gene relative expression, 0.3 μM, 4 h, vs DMSO) was 18.6. The fold induction at 0.3 µM ([3]; Homo sapiens, PBMC, read-out: IL-1β gene relative expression, 0.3 μM, 4 h, vs DMSO) was 1.53, the fold induction at 0.3 µM ([3]; Homo sapiens, PBMC, read-out: IL-2 gene relative expression, 0.3 μM, 4 h, vs DMSO) was 3.41 and the fold induction at 0.3 µM ([3]; Homo sapiens, PBMC, read-out: IL-4 gene relative expression, 0.3 μM, 4 h, vs DMSO) was 2.57. It also gave a fold induction at 0.3 µM ([3]; Homo sapiens, PBMC, read-out: IL-6 gene relative expression, 0.3 μM, 4 h, vs DMSO) of 4.85, a fold induction at 0.3 µM ([3]; Homo sapiens, PBMC, read-out: IL-8 gene relative expression, 0.3 μM, 4 h, vs DMSO) of 0.59 and a fold induction at 0.3 µM ([3]; Homo sapiens, PBMC, read-out: IL-10 gene relative expression, 0.3 μM, 4 h, vs DMSO) of 0.06. For the same compound, the fold induction at 0.1 µM ([3]; Homo sapiens, PBMC, read-out: IL-12p40 gene relative expression, 0.10 μM, 4 h, vs DMSO) was 0.45, the fold induction at 0.3 µM ([3]; Homo sapiens, PBMC, read-out: IL-12p40 gene relative expression, 0.3 μM, 4 h, vs DMSO) was 0.69 and the fold induction at 0.3 µM ([3]; Homo sapiens, PBMC, read-out: IL-12p70 gene relative expression, 0.3 μM, 4 h, vs DMSO) was 0.61. The fold induction at 0.3 µM ([3]; Homo sapiens, PBMC, read-out: IL-13 gene relative expression, 0.3 μM, 4 h, vs DMSO) was 78.9, the fold induction at 0.3 µM ([3]; Homo sapiens, PBMC, read-out: IL-18 gene relative expression, 0.3 μM, 4 h, vs DMSO) was 0.04 and the fold induction at 0.3 µM ([3]; Homo sapiens, PBMC, read-out: ISG15 gene relative expression, 0.3 μM, 4 h, vs DMSO) was 1.14. The fold induction at 0.3 µM ([3]; Homo sapiens, PBMC, read-out: MIP1a (CCL3) gene relative expression, 0.3 μM, 4 h, vs DMSO) was 3.37, the fold induction at 0.3 µM ([3]; Homo sapiens, PBMC, read-out: MX1 gene relative expression, 0.3 μM, 4 h, vs DMSO) was 0.57 and the fold induction at 0.3 µM ([3]; Homo sapiens, PBMC, read-out: OAS1 gene relative expression, 0.3 μM, 4 h, vs DMSO) was 0.42. It also gave a fold induction at 0.3 µM ([3]; Homo sapiens, PBMC, read-out: TNF-α gene relative expression, 0.3 μM, 4 h, vs DMSO) of 4.13.
In the case of `CCCCCCCCCCCCCC(=O)O[C@@H]1[C@@H](C)[C@@]2(O)[C@@H](C=C(CO)C[C@]3(O)C(=O)C(C)=C[C@@H]23)[C@@H]2C(C)(C)[C@]12OC(C)=O` [PMA, Phorbol 12-myristate 13-acetate], the “PKC-dependent NFκB activation” value [4] is given as “induce PKC-dependent NFκB activation” and the “antigen-specific antibody as well as T cell responses” value [5] is given as “boosts antigen-specific antibody as well as T cell responses in vivo”.
For `CCC/C=C/C=C/C(=O)O[C@H]1/C(=C/C(=O)OC)C[C@H]2C[C@H]([C@@H](C)O)OC(=O)C[C@H](O)C[C@@H]3C[C@H](OC(C)=O)C(C)(C)[C@](O)(C[C@@H]4C/C(=C/C(=O)OC)C[C@H](/C=C/C(C)(C)[C@]1(O)O2)O4)O3` [Bryostatin], the “chemokine expression in DC cells” value [6] is given as “induces chemokine expression in DC cells” and the “antigen-specific T cell responses from a peptide-based vaccine” value [7] is given as “stimulates an antigen-specific T cell responses”.
